Results as given in patent US9358300B2, “Transfection reagents” (LIFE TECHNOLOGIES CORPORATION, priority 1998, dated 2016).

System: Primary, passaged, normal human fibroblasts (NHFs)
Assay: Transfection of normal human fibroblasts with pCMV SPORT-β-gal DNA, β-gal activity
Type: cell-based
Conditions: 40 ng pCMV SPORT-β-gal DNA and 0.1 or 0.2 μl lipid per well, ND = no detectable activity
Description: The cationic lipid reagents and DNA were diluted separately into 25µl aliquots of serum-free DMEM, containing 1% NEAA. For LIPOFECTAMINE® PLUS, 7 14 μl of PLUS reagent was added to the DNA, mixed, and incubated for 15 minutes at room temperature. The diluted DNA was combined with the diluted lipid and incubated at room temperature for at least 15 minutes to allow the DNA and the lipid to form complexes. Following this incubation the complexes were added directly into the culture medium dropwise and mixed by rocking the culture plate back and forth. The cells were further incubated at 37° C. for a total of 24 hours to allow expression of the lacZ transgene encoded by the reporter plasmid, pCMV SPORT-β-gal. At 24 hours post-transfection, the growth medium and transfection complexes were removed from the wells, and the cells in each well were rinsed briefly with 1 ml of D-PBS (Dulbecco's PBS, Life Technologies, Rockville, Md.). The cells in each well were lysed by the addition of 0.15 to 2.0 ml of […]. The plates were frozen at −80° C. for a minimum of 2 hours, and thawed at room temperature or 37° C. The thawed cell lysates were cleared by centrifugation and the supernatants were assayed for β-gal activity using the enzymatic substrate ONPG. The concentration of total protein in cell lysates was also determined using a Bradford assay (Bio-Rad Laboratories, Hercules Calif.). β-gal activity in transfected cell extracts was calculated against a standard curve and expressed as ng β-gal per surface area of tissue culture plate (ng/cm2) to reflect activity per transfection, or as ng β-gal per μg of total protein (ng/μg) to reflect specific activity.
Primary, passaged, normal human fibroblasts (NHFs) were plated in 96-well plates at a density of 1.6×104 cells per well and transfected the following day. Cells in each well were transfected with 40 ng pCMV SPORT-β-gal DNA and 0.1 or 0.2 μl lipid.
The DNA and lipid were diluted separately into 10 μl of DMEM. The DNA was either used alone or pre-mixed with PLUS, insulin, transferrin, or an integrin-targeting peptide prior to complexing with the lipid. After 15 minutes of complexing, the DNA-lipid was added to cells. Cells were assayed for p-gal activity as described above.

Question: With “N^1,N^4-dioleyl-N^1,N^4-di-[2-hydroxy-3-(N-spermine carboxamido)-aminopropyl]-diaminobutane [Compound of Formula VII]” as the substance, how does the “ACTIVITY (β-gal), DNA and PLUS” value (DNA pre-mixed with PLUS Reagent) read?
Answer: The value was 637.9 ng/βgal/cm^2.

Question: And the “ACTIVITY (β-gal), DNA and INSULIN” value (DNA pre-mixed with insulin)?
Answer: Its value is 195.7 ng/βgal/cm^2.

Question: And the “ACTIVITY (β-gal), DNA and INTEGRIN-TARGETING PRPTIDE” value (DNA pre-mixed with integrin-targeting peptide)?
Answer: The value was 587.9 ng/βgal/cm^2.

Question: What about the “ACTIVITY (β-gal), DNA and TRANSFERRIN” value (DNA pre-mixed with transferrin) of the same substance?
Answer: The value was 21.7 ng/βgal/cm^2.

Question: What about the “ACTIVITY (β-gal), DNA” value (DNA used alone) of the same substance?
Answer: The value was 29.4 ng/βgal/cm^2.
